According to ChEMBL document CHEMBL5532741, “Novel 2,4-Dichloro-5-sulfamoylbenzoic Acid Oxime Esters: First Studies as Potential Human Carbonic Anhydrase Inhibitors” (ACS Med Chem Lett, 2024):
Active and inactive are the calls of the source. The rule behind the calls is not given here.

Experiments:
MDA-MB-231 [1] = assay: Antiproliferative activity against human MDA-MB-231 cells measured after 72 hrs by cell counting kit 8 method; type: functional, cell-based; conditions: MDA-MB-231, 72 h
Homo sapiens [2] = species: Homo sapiens; assay: Selectivity index, ratio of Ki for recombinant human CA9 to Ki for recombinant human CA2
Homo sapiens [3] = species: Homo sapiens; assay: Selectivity index, ratio of Ki for recombinant human CA12 to Ki for recombinant human CA2
MDA-MB-231 [4] = assay: Antiproliferative activity against human MDA-MB-231 cells at high concentration measured after 72 hrs by cell counting kit 8 method; type: functional, cell-based

Row | SMILES | IC50 (MDA-MB-231 [1]) [µM] | further results
1 | NS(=O)(=O)c1ccc(NC(=O)Nc2ccc(F)cc2)cc1 [SLC-0111] | 18.2 | –
2 | NS(=O)(=O)c1cc(C(=O)O)c(Cl)cc1Cl | – | Ratio Ki (Homo sapiens [2]): 7.9; Ratio Ki (Homo sapiens [3]): 22.7
3 | COc1cccc(OC)c1/C=N/OC(=O)c1cc(S(N)(=O)=O)c(Cl)cc1Cl | 108 | –
4 | COc1ccc(/C=N/OC(=O)c2cc(S(N)(=O)=O)c(Cl)cc2Cl)c(OC)c1OC | 113 | –
5 | NS(=O)(=O)c1cc(C(=O)O/N=C/c2ccccc2)c(Cl)cc1Cl | – | Activity (MDA-MB-231 [4]): inactive
